Legend:
HIV-1 = tested on: HIV-1; parameters: method as in PMID 21115794; details: cited from earlier work
[1] = Aqueous solubility (excess drug in water, room temperature, overnight, UPLC); assay type: physicochemical
Protocol: A lipophilic and hydrophobic modified DTG prodrug (called MDTG) was synthesized through myristoylation of the parent drug hydroxyl group. Initially, DTG was dried by co-evaporation from anhydrous pyridine then resuspended in anhydrous DMF and cooled to 0 °C under argon. 2-equivalents DIEA were used to deprotonate the 7-hydroxyl group of DTG, which was then immediately reacted with 2 equivalents myristoyl chloride for 24 h. The resultant product was purified by silica gel column chromatography using an initial mobile phase of 4:1 ethyl acetate: hexanes for 12 fractions, then 9:1 ethyl acetate: hexanes for the remainder. […] ESI-MS specifics (m/z): calculated for C34H45F2N3O6, 629.33 (100%), 630.33 (36.8%), 631.33 (3.9%); found, 630.30. […] The aqueous solubility of DTG and MDTG was evaluated by adding excess drug to water at room temperature then mixing it overnight. […] Solubilized drug in the supernatant was extracted in methanol and measured using a Waters ACQUITY ultra performance liquid chromatography (UPLC) H-Class System with TUV detector and Empower 3 software (Milford, MA). For DTG and MDTG quantitation, drug extracts were separated on a Phenomenex Kinetex 5 μm C18 column (150 × 4.6 mm) (Torrance, CA) using either 65% 50 mM KH2PO4, pH 3.2/35% ACN (DTG) or 90% ACN/10% water (MDTG) with a flow rate of 1.0 mL/min and detected at 254 nm and 230 nm, respectively. […]

Row | Structure (SMILES) | protein-adjusted inhibitory concentration90 (PA-IC90) (HIV-1) | decrease in aqueous solubility compared to DTG [1]
1 | C[C@@H]1CCO[C@H]2Cn3cc(C(=O)NCc4ccc(F)cc4F)c(=O)c(O)c3C(=O)N12 [DTG, dolutegravir] | 0.064 µg/mL | 
2 | CCCCCCCCCCCCCC(=O)Oc1c2n(cc(C(=O)NCc3ccc(F)cc3F)c1=O)C[C@@H]1OCC[C@@H](C)N1C2=O [MDTG] |  | 8.7 fold

From PMC5799307, “Creation of a long-acting nanoformulated dolutegravir” (Nature Communications, 2018)
